Measurements taken from ChEMBL document CHEMBL1129897 (Bioorg Med Chem Lett, 1997).

target: 5-hydroxytryptamine receptor 2A (Rattus norvegicus, UniProt P14842); experiment: Tested in vitro for its ability to inhibit [3H]ketanserin binding to 5-hydroxytryptamine 2A receptor in rat frontal cortex membranes; format: cell membranes, Membrane
Sequence (P14842 whole entry): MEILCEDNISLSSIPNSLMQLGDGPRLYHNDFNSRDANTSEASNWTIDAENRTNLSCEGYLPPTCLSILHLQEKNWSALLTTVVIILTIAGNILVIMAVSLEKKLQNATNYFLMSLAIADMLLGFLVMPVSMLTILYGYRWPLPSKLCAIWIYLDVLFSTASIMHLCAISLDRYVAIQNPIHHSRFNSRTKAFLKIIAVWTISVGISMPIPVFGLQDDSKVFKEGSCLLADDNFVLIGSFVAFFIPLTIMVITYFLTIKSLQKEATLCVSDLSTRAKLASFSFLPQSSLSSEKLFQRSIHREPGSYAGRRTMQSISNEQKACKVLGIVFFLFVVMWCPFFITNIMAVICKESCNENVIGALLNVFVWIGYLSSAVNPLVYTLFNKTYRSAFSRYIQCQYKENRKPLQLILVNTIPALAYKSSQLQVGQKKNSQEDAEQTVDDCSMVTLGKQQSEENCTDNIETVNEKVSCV

Ki [µM]	SMILES
0.00501	CCc1c(C)[nH]c2c1C(=O)CC(CN1CCC(c3noc4cc(F)ccc34)CC1)C2 (centres undefined)
0.282	CCc1c(C)[nH]c2c1C(=O)CC(CN1CCN(c3ccccc3OC)CC1)C2 (centres undefined)
0.00617	CCc1c(C)[nH]c2c1C(=O)CC(CN1CCC(C(=O)c3ccc(F)cc3)CC1)C2 (centres undefined)
0.398	CCc1c(C)[nH]c2c1C(=O)CC(CN1CCN(CCCC(=O)c3ccc(F)cc3)CC1)C2 (centres undefined)
